According to PubChem BioAssay (NCI):
Values joined by “and” are separate entries in the source; they are usually repeats but may differ in a detail not shown here. Equal values may be shown once.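 Growth conditions: 96-well plates. Treatment: test compound, 48 hours, 5 concentrations. Analysis: linear interpolation between bracketing concentrations; unreached endpoints set to highest concentration. The concentration for 50% growth inhibition is given as GI50. TGI: concentration producing complete growth inhibition.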

Columns and labels:
Experiment in all cases: NCI tumour cell line growth inhibition, 48 h
SK-MEL-28 melanoma = test system: SK-MEL-28 melanoma
UO-31 renal = test system: UO-31 renal
UACC-257 melanoma = test system: UACC-257 melanoma
SK-OV-3 ovarian = test system: SK-OV-3 ovarian
COLO 205 colon = test system: COLO 205 colon
NCI/ADR-RES ovarian = test system: NCI/ADR-RES ovarian
RXF 393 renal = test system: RXF 393 renal
PC-3 prostate = test system: PC-3 prostate
DU-145 prostate = test system: DU-145 prostate
TK-10 renal = test system: TK-10 renal

COc1cc2c(cc1OC)C1Cc3cc(OC)c(OC)cc3C(C2)N1C
TGI (SK-MEL-28 melanoma): > 100 µM | GI50 (UO-31 renal): 19.7 µM and 40.5 µM | TGI (UO-31 renal): > 100 µM | TGI (UACC-257 melanoma): > 100 µM | TGI (SK-OV-3 ovarian): > 75 µM | TGI (COLO 205 colon): > 75 µM | TGI (NCI/ADR-RES ovarian): > 75 µM | TGI (RXF 393 renal): > 75 µM | TGI (PC-3 prostate): > 75 µM | TGI (DU-145 prostate): > 75 µM | GI50 (TK-10 renal): 36.3 µM and > 100 µM | TGI (TK-10 renal): > 100 µM

O=C1OCC2=C1C(c1ccc(Cl)c(Cl)c1)c1cc3c(cc1N2CCO)CCC3 (stereo unspecified)
GI50 (SK-MEL-28 melanoma): 0.323 µM | TGI (SK-MEL-28 melanoma): 11.7 µM | GI50 (UO-31 renal): 0.237 µM | TGI (UO-31 renal): 21.2 µM | GI50 (UACC-257 melanoma): 0.151 µM | TGI (UACC-257 melanoma): 15.7 µM | GI50 (SK-OV-3 ovarian): 0.211 µM | TGI (SK-OV-3 ovarian): 6 µM | GI50 (COLO 205 colon): 0.175 µM | TGI (COLO 205 colon): 0.702 µM | GI50 (NCI/ADR-RES ovarian): 0.123 µM | TGI (NCI/ADR-RES ovarian): 2.3 µM | GI50 (RXF 393 renal): 0.141 µM | TGI (RXF 393 renal): 1.46 µM | GI50 (PC-3 prostate): 0.163 µM | TGI (PC-3 prostate): 8.76 µM | GI50 (DU-145 prostate): 0.203 µM | TGI (DU-145 prostate): 6.56 µM | GI50 (TK-10 renal): 0.312 µM | TGI (TK-10 renal): 13.2 µM

CCN(CC)C1CCC(Nc2c(C(C)=O)cnc3ccc(-c4ccc(O)c(Cl)c4)cc23)CC1 (stereo unspecified)
GI50 (SK-MEL-28 melanoma): 1.83 µM | TGI (SK-MEL-28 melanoma): 16.2 µM | GI50 (UO-31 renal): 0.425 µM | TGI (UO-31 renal): > 36.8 µM | GI50 (UACC-257 melanoma): 2.77 µM | TGI (UACC-257 melanoma): 18.3 µM | GI50 (SK-OV-3 ovarian): 0.931 µM | TGI (SK-OV-3 ovarian): > 44.5 µM | GI50 (COLO 205 colon): 10.7 µM | TGI (COLO 205 colon): 40.7 µM | GI50 (NCI/ADR-RES ovarian): 0.821 µM | TGI (NCI/ADR-RES ovarian): 5.55 µM | GI50 (RXF 393 renal): 0.615 µM | TGI (RXF 393 renal): 2.28 µM | GI50 (PC-3 prostate): 0.494 µM | TGI (PC-3 prostate): > 44.5 µM | GI50 (DU-145 prostate): 0.875 µM | TGI (DU-145 prostate): > 35.5 µM | GI50 (TK-10 renal): 3.52 µM | TGI (TK-10 renal): > 100 µM

COc1cc(/C=C/C(=O)N2CCN(C(=O)c3cc(OC)c(OC)c(OC)c3)CC2)ccc1OCCCOc1cc2c(cc1OC)C(=O)N1CCC[C@H]1C=N2
GI50 (SK-MEL-28 melanoma): 0.212 µM | TGI (SK-MEL-28 melanoma): 0.417 µM | GI50 (UO-31 renal): 1.98 µM | TGI (UO-31 renal): 6.56 µM | GI50 (UACC-257 melanoma): 0.313 µM | TGI (UACC-257 melanoma): 2.04 µM | GI50 (SK-OV-3 ovarian): 0.551 µM | TGI (SK-OV-3 ovarian): > 71.3 µM | GI50 (COLO 205 colon): 0.19 µM | TGI (COLO 205 colon): 0.476 µM | GI50 (NCI/ADR-RES ovarian): 11.4 µM | TGI (NCI/ADR-RES ovarian): > 95 µM | GI50 (RXF 393 renal): 0.334 µM | TGI (RXF 393 renal): 3.68 µM | GI50 (PC-3 prostate): 0.506 µM | TGI (PC-3 prostate): > 34.3 µM | GI50 (DU-145 prostate): 0.351 µM | TGI (DU-145 prostate): 11.5 µM | GI50 (TK-10 renal): 0.45 µM | TGI (TK-10 renal): 4.37 µM

CC(=O)OC1CC2C3CCC4C[C@@H](NC(=O)C=C(C)C)CC[C@]4(C)C3CC[C@]2(C)[C@H]1C(C)N(C)C (stereo partly specified)
GI50 (SK-MEL-28 melanoma): 1.75 µM | TGI (SK-MEL-28 melanoma): 3.39 µM | GI50 (UO-31 renal): 0.949 µM | TGI (UO-31 renal): 2.95 µM | GI50 (UACC-257 melanoma): 2.18 µM | TGI (UACC-257 melanoma): 4.5 µM | GI50 (SK-OV-3 ovarian): 2.79 µM | TGI (SK-OV-3 ovarian): 7.38 µM | GI50 (COLO 205 colon): 1.51 µM | TGI (COLO 205 colon): 3.14 µM | GI50 (NCI/ADR-RES ovarian): 4.13 µM | TGI (NCI/ADR-RES ovarian): 16.5 µM | GI50 (RXF 393 renal): 1.59 µM | TGI (RXF 393 renal): 3.66 µM | GI50 (PC-3 prostate): 2.14 µM | TGI (PC-3 prostate): 8.97 µM | GI50 (DU-145 prostate): 3.41 µM | TGI (DU-145 prostate): 14.1 µM | GI50 (TK-10 renal): 5.45 µM | TGI (TK-10 renal): 13.3 µM

O=C(Nc1n[nH]c2nnc(-c3cccnc3)cc12)C1CC1
GI50 (SK-MEL-28 melanoma): > 16.9 µM | TGI (SK-MEL-28 melanoma): > 25 µM | GI50 (UO-31 renal): 1.65 µM | TGI (UO-31 renal): > 20.3 µM | GI50 (UACC-257 melanoma): > 17.4 µM | TGI (UACC-257 melanoma): > 25 µM | GI50 (SK-OV-3 ovarian): 0.621 µM | TGI (SK-OV-3 ovarian): > 25 µM | GI50 (COLO 205 colon): 7.45 µM | TGI (COLO 205 colon): > 25 µM | GI50 (NCI/ADR-RES ovarian): > 25 µM | TGI (NCI/ADR-RES ovarian): > 25 µM | GI50 (RXF 393 renal): 0.428 µM | TGI (RXF 393 renal): > 17.9 µM | GI50 (PC-3 prostate): 6.44 µM | TGI (PC-3 prostate): > 25 µM | GI50 (DU-145 prostate): > 13.4 µM | TGI (DU-145 prostate): > 25 µM | TGI (TK-10 renal): > 25 µM
